What was measured:
[1] = DPPH radical scavenging antioxidant assay
Protocol: To assess the antioxidant activity of hybrids IVa–e, IIf and quercetin, the 2,2-diphenyl-1-[…] (DPPH) radical scavenging colorimetric method was used, which is one of the most widely used methods for determining antioxidant activity. In this method, antioxidants react with DPPH (which has a strong violet color) and convert it into yellow diphenylpicrylhydrazine. Compounds were assayed in the range of concentrations from 3 to 200 μg/mL. Ascorbic acid was used as positive control. […] Another piece of evidence is the similarity between the % inhibition values of hybrids IVa,b and IVd,e and quercetin.
The colorimetric DPPH assay was carried out as described in [33]. […] In brief, 30 μL of a test compound (in MeOH) was mixed with 200 μL of DPPH (100 μM in methanol) in a 96-well plate in triplicate. After 30 min incubation at room temperature in the absence of light, the absorbances were measured at 517 nm using Microplate Spectrophotometry (TriStar® S LB 942 model instrument). The free radical scavenging activity results are expressed as a percentage of DPPH inhibition according to the following formula:
% of Inhibition = 100[(A(Blank) − A(sample))/A(blank)], where A(blank) consists of methanol (30 μL) mixed with DPPH (200 μL) absorbance, and A(sample) is the absorbance value for the added sample concentration compound mixed with DPPH. Ascorbic acid was used as a positive control.

in vitro = settings: human
Protocol: (§1) Given the importance of oxidative stress-induced apoptosis of neuronal cells in AD, we present here a study to investigate the effect of quercetin-1,2,3-triazole hybrids on H2O2-induced oxidative damage in cultured MCF-7 cells, used as a human cell model. Viability was assessed with the WST-1 test in the absence and in the presence of an oxidative stressor (10^−4 M H2O2).
(§2) MCF-7 (Human breast adenocarcinoma (MERCK—# 86012803-DNA-5UG), Database Name: ECACC collection, Accession Numbers: 86012803) was the cell line elected as a cell injury model for the study of the potential protective effect of the butyrylcholinesterase inhibitors (hybrids) against hydrogen peroxide-induced oxidative stress. Cytotoxicity of the hybrids was also evaluated.
(§3) The compounds to be tested were firstly dissolved in dimethyl sulfoxide (DMSO) at a concentration of 4 × 10^−2 M. They were then diluted in cell growth media (EMEM) (supplemented with FBS 10%) with 0.25% DMSO to obtain solutions between 6.25 and 50.00 µM.
(§4) Eagle’s Minimum Essentia Medium (EMEM), including 10% fetal bovine serum (FBS), 100 IU/mL penicillin, and 100 μg/mL streptomycin, was used to culture MCF-7 cells at 37 °C in 5% CO2 atmosphere incubator with media replenished every 2 days. A total of 5 × 10^3 cells were cultured in 96-well plates and incubated for 72 h prior to stimulus application.
(§5) The culture medium was subsequently replaced with different final concentrations (6.25–50 μM) of the compounds to be tested. Negative controls were prepared, incubating cells in culture media.
(§6) Parallel experiments were performed for cytotoxicity assessment and for protective effect against hydrogen peroxide-induced oxidative stress evaluation. First, 10 μL of PBS was added in the designated wells; second, 10 μL of H2O2 (reaching a final concentration of 100 µM) was added. Following a 2 h incubation period at 37 °C in 5% CO2 atmosphere incubator, cellular viability was measured by adding WST-1 dehydrogenases substrate and incubating for 1 h, and the amount of formazan dye produced was evaluated by measuring the absorbance at 440 nm.

eqBuChE [2] = target: T1, eqBuChE (Equus caballus, UniProt P81908); test: Kinetic study for the inhibition of eqBuChE (Lineweaver-Burk); format: biochemical; settings: for Inhibition type / Ki: Lineweaver-Burk; for Ki: read-out: Ki (inhibitory constant)
T1 construct: equine serum butyrylcholinesterase (eqBuChE); purchased Sigma-Aldrich (lyophilized powder, 10.9 U/mg); host or cells: equine serum
Description: The interaction with the active center of the enzyme thus seems to be favored by the presence of polar groups. Hybrid IIf presented the smaller Ki (Table 3), binding to the enzyme with the higher affinity, which can be relevant for pharmacologic applications in the future.
Lineweaver–Burk plot (1/V vs. 1/[BTCI]) was used for determining the inhibition constants (Ki’s) and the mechanism of action.

MCF-7 cells [3] = test: Protective assay against hydrogen peroxide-induced oxidative stress in MCF-7 cells; format: cell-based, Human; settings: 100 µM H2O2, 2 h
Protocol: as §1, §2, §5, §6

eqBuChE [4] = target: T1, eqBuChE; test: Ellman cholinesterase inhibitory assay, eqBuChE (screening and IC50); format: biochemical; settings: for inhibition at 100 µM: compound 100 µM, substrate 3 mM; for IC50: concentration range 1.2-300 µM, BTCI 0.8 mM, read-out: IC50 values for eqBuChE
Protocol: (§7) Firstly, the inhibitory activity of the quercetin-1,2,3-triazole hybrids I–IV was screened in vitro on eeAChE and eqBuChE at a concentration of 100 μM (these enzymes are considered as models of the human isoform). The ChE inhibitory activity of all compounds was evaluated using the method of Ellman.
(§8) The inhibitory activities of title compounds against commercially available cholinesterases (eeAChE) (Electrophorus electricus, Type V-S), eqBuChE (equine serum), were conducted using minor modifications of Ellman’s assay. Nine different concentrations ([…], 37.5, 75, 150, and 300 μM in H2O:DMSO (50:50)) of each test compound were used to determine the enzyme-inhibition activity. Briefly, 55 μL of 50 mM Tris-HCl buffer at pH 8, 25 μL of eqBuChE (0.03 U/mL), 20 μL of the test or standard compounds, and 125 μL of DTNB (0.8 mM) were incubated in 96-well plates at 37 °C for 15 min. Further, 25 μL of the substrate, BTCI (0.8 mM), was added, and the solution was incubated for additional 15 min. Finally, the absorbance was measured at 412 nm wavelength using a Microplate Spectrophotometry (TriStar® S LB 942 model instrument). The IC50 values were determined from the absorbance obtained for various concentrations of the test and the standard compounds. All determinations were performed in triplicate.
(§9) To determine the % of inhibition ([I] = 100 μM), the substrate concentration (acetylthiocholine iodide for AChE; S-butyrylthiocholine iodide for BuChE) was fixed at 3 mM.

Artemia salina = Artemia salina lethal toxicity assay; format: in vivo; settings: for concentrations without toxicity: Artemia salina
Protocol: (§10) Artemia salina was used for in vivo general toxicity assessment of the promising hybrids IVb, IVd, and IIf; the results are shown in Table 4 and Figure 7. K2Cr2O7 was used as a control. Hybrid IVd presented the lowest toxicity.
(§11) The ARTOXKIT M protocol was used. The percentage of dyed nauplii of Artemia salina, grown in the presence of variable concentrations of the inhibitor compounds, was measured to determine the LC50 values. A test with K2Cr2O7 was used for quality control.

[5] = Artemia salina lethal toxicity assay; format: in vivo; settings: Artemia salina, in vivo, other: grown in the presence of the compound, Artemia salina nauplii
Protocol: as §10, §11

eeAChE = target: T2, eeAChE (Electrophorus electricus, UniProt O42275); test: Ellman cholinesterase inhibitory assay, eeAChE screening; format: biochemical; settings: compound 100 µM; substrate 3 mM
T2 construct: catalogue number not given
Protocol: as §7, §8, §9

[6] = tested on: REM-138 cell line (canine breast cancer); set-up: method as in doi:10.1055/s-0040-1719928; settings: REM cells; 72 h incubation; cited from earlier work
MCF-7 cells [7] = test: in vitro
Protocol: as §1, §2, §3, §4, §5, §6

T2 sequence (O42275 24-633): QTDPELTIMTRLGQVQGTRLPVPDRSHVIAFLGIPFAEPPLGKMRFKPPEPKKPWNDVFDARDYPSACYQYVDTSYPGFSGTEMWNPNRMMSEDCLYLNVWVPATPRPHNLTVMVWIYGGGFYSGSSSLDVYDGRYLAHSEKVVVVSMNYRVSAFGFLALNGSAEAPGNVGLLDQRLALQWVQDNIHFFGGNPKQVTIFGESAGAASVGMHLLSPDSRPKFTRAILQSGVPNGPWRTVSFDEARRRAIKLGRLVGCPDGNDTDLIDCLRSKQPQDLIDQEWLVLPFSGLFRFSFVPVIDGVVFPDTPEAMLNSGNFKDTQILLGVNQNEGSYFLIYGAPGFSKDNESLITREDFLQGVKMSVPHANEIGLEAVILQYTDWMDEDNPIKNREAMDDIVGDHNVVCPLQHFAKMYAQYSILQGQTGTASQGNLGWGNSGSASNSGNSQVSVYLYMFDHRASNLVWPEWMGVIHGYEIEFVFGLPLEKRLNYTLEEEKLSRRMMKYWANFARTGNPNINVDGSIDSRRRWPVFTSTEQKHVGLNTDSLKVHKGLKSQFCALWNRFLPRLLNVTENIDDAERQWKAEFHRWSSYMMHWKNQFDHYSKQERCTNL
T1 sequence (P81908 whole entry): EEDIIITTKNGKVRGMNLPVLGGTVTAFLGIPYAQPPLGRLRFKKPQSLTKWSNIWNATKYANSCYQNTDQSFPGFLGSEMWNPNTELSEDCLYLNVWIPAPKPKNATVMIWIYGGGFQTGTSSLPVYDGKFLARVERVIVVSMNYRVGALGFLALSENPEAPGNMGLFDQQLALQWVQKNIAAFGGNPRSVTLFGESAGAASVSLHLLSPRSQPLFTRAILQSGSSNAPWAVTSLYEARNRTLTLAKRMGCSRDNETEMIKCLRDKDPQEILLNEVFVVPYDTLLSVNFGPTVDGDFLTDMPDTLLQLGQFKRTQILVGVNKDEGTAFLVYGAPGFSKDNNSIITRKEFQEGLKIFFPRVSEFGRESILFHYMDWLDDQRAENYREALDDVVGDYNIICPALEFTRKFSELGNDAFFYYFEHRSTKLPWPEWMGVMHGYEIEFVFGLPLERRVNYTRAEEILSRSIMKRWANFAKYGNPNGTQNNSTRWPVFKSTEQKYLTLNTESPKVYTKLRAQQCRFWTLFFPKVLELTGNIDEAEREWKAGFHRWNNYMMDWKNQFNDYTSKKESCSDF

Q: For `CC(C)(O)c1cn(CCCCOc2c(-c3ccc(O)c(O)c3)oc3cc(O)cc(O)c3c2=O)nn1` [IVd, 2-(3,4-Dihydroxyphenyl)-5,7-dihydroxy-3-(4-(4-(2-hydroxypropan-2-yl)-1H-1,2,3-triazol-1-yl)butoxy)-4H-chromen-4-one], which DPPH antioxidant activity ([1]; 100 μg/mL) is on record?
A: Its DPPH antioxidant activity is “potent antioxidant activity”.

Q: What about the EC50 at 2 h (in vitro) of the same molecule?
A: Its EC50 at 2 h is > 50 µM.

Q: What about the Inhibition type (eqBuChE [2]) of the same molecule?
A: The Inhibition type was “competitive inhibition”.

Q: What about the Ki (eqBuChE [2]) of the same molecule?
A: Its Ki is 36 µM.

Q: And the Vmax app (eqBuChE [2]; inhibitor 17.5 µM)?
A: Its Vmax app is 9.6 U.mg^−1.

Q: What about the Vmax app (eqBuChE [2]; inhibitor 35 µM) of the same molecule?
A: The Vmax app was 9.0 U.mg^−1.

Q: And the “cellular antioxidant protection against H2O2” value (MCF-7 cells [3])?
A: The value was “equally effective in the antioxidant protection”.

Q: And the inhibition at 100 µM (eqBuChE [4])?
A: Its inhibition at 100 µM is 56.6%.

Q: What about the IC50 (eqBuChE [4]) of the same molecule?
A: The IC50 was 39 µM.

Q: And the LC50 (Artemia salina; Artemia salina nauplii, read-out: LC50)?
A: The LC50 was ≥ 100 µM.

Q: What about the LC50 [5] of the same molecule?
A: Its LC50 is > 100 µM.

Q: And the inhibition at 100 µM (eeAChE)?
A: The inhibition at 100 µM was 3.65%.

Q: For `O=c1c(OCCCCn2cc(-c3ccccc3)nn2)c(-c2ccc(O)c(O)c2)oc2cc(O)cc(O)c12` [IVa, 2-(3,4-Dihydroxyphenyl)-5,7-dihydroxy-3-(4-(4-phenyl-1H-1,2,3-triazol-1-yl)butoxy)-4H-chromen-4-one], which cytotoxic concentration [6] is on record?
A: Its cytotoxic concentration is > 10 µM.

Q: And the DPPH antioxidant activity ([1]; 100 μg/mL)?
A: The DPPH antioxidant activity was “potent antioxidant activity”.

Q: And the “reduction of cellular viability” value (MCF-7 cells [7]; 6.25 μM, MCF-7, 2 h, without H2O2)?
A: Its value is 40%.

Q: What about the inhibition at 100 µM (eqBuChE [4]) of the same molecule?
A: The inhibition at 100 µM was 82.8%.

Q: What about the IC50 (eqBuChE [4]) of the same molecule?
A: Its IC50 is 24.7 µM.

Q: And the inhibition at 100 µM (eeAChE)?
A: The inhibition at 100 µM was 0%.

Q: With `COc1ccc2c3c1O[C@H]1C[C@@H](O)C=C[C@@]31CCN(C)C2` [Galantamine, reference compound] as the molecule, how does the “effect on cellular viability” value (MCF-7 cells [7]; concentrations tested 6.25-50 μM, MCF-7) read?
A: The value was “did not reduce cellular viability”.

Q: What about the “cellular antioxidant protection against H2O2” value (MCF-7 cells [3]) of the same molecule?
A: The value was “good antioxidant cellular protection”.

Q: With `COc1cc(OC)c2c(=O)c(OCCCCn3cc(CN4C(=O)C(=O)c5ccccc54)nn3)c(-c3ccc(OC)c(OC)c3)oc2c1` [IIf, 1-((1-(4-((2-(3,4-Dimethoxyphenyl)-5,7-dimethoxy-4-oxo-4H-chromen-3-yl)oxy)butyl)-1H-1,2,3-triazol-4-yl)methyl)indoline-2,3-dione] as the molecule, how does the DPPH antioxidant activity ([1]; 3 to 200 μg/mL) read?
A: The DPPH antioxidant activity was “no antioxidant activity”.

Q: And the Inhibition type (eqBuChE [2])?
A: Its Inhibition type is “competitive inhibition”.

Q: What about the Ki (eqBuChE [2]) of the same molecule?
A: Its Ki is 6.2 µM.

Q: What about the Vmax app (eqBuChE [2]; inhibitor 5 µM) of the same molecule?
A: Its Vmax app is 11.8 U.mg^−1.

Q: What about the Vmax app (eqBuChE [2]; inhibitor 20 µM) of the same molecule?
A: Its Vmax app is 11.4 U.mg^−1.

Q: And the Vmax app (eqBuChE [2]; inhibitor 40 µM)?
A: Its Vmax app is 13.4 U.mg^−1.

Q: And the “cellular antioxidant protection against H2O2” value (MCF-7 cells [3])?
A: The value was “equally effective in the antioxidant protection”.

Q: And the inhibition at 100 µM (eqBuChE [4])?
A: The inhibition at 100 µM was 100%.

Q: What about the IC50 (eqBuChE [4]) of the same molecule?
A: The IC50 was 11.2 µM.

Q: What about the concentrations without toxicity (Artemia salina) of the same molecule?
A: Its concentrations without toxicity is ≤ 10 µM.

Q: What about the LC50 [5] of the same molecule?
A: Its LC50 is 34.6 µM.

Q: And the inhibition at 100 µM (eeAChE)?
A: Its inhibition at 100 µM is 24.3%.

Q: For `O=c1c(OCCCCn2cc(C3CC3)nn2)c(-c2ccc(O)c(O)c2)oc2cc(O)cc(O)c12` [IVb, 3-(4-(4-Cyclopropyl-1H-1,2,3-triazol-1-yl)butoxy)-2-(3,4-dihydroxyphenyl)-5,7-dihydroxy-4H-chromen-4-one], which cytotoxic concentration [6] is on record?
A: Its cytotoxic concentration is > 10 µM.

Q: What about the DPPH antioxidant activity ([1]; 100 μg/mL) of the same molecule?
A: Its DPPH antioxidant activity is “potent antioxidant activity”.

Q: What about the cytotoxic concentration (MCF-7 cells [7]; human, 2 h) of the same molecule?
A: The cytotoxic concentration was > 25 µM.

Q: And the Inhibition type (eqBuChE [2])?
A: Its Inhibition type is “mixed type (non-competitive)”.

Q: What about the Ki (eqBuChE [2]) of the same molecule?
A: Its Ki is 30 µM.

Q: And the Vmax app (eqBuChE [2]; inhibitor 17.5 µM)?
A: The Vmax app was 7.5 U.mg^−1.

Q: And the Vmax app (eqBuChE [2]; inhibitor 35 µM)?
A: The Vmax app was 6.5 U.mg^−1.

Q: And the Vmax app (eqBuChE [2]; inhibitor 70 µM)?
A: The Vmax app was 4.5 U.mg^−1.

Q: And the “cellular antioxidant protection against H2O2” value (MCF-7 cells [3])?
A: Its value is “equally effective in the antioxidant protection”.

Q: And the inhibition at 100 µM (eqBuChE [4])?
A: The inhibition at 100 µM was 90.5%.

Q: What about the IC50 (eqBuChE [4]) of the same molecule?
A: Its IC50 is 32.4 µM.

Q: What about the concentrations without toxicity (Artemia salina) of the same molecule?
A: The concentrations without toxicity was ≤ 10 µM.

Q: And the LC50 [5]?
A: Its LC50 is 10 to 100 µM.

Q: And the inhibition at 100 µM (eeAChE)?
A: Its inhibition at 100 µM is 5.21%.
